The text below walks through data of patent US4427671A, “Steroids esterified in position 17 and thioesterified in position 21, a process for preparing them and their use as medicaments” (priority 1981, dated 1984).

Holding throughout (type): in vivo, male Sprague-Dawley I.O.P.S. rats
For data set [1], the system named is granuloma. Briefly: Local anti-inflammatory activity: inhibition of granuloma formation around implanted cotton wool pellet. As to conditions: Table 1; for R 1 (relative local anti-inflammatory activity compared with betamethasone 17,21-dipropionate): D.P.B. = 1, calculated from ED50; for ED50 (local anti-inflammatory activity, 50% inhibition in granuloma weight): rat, cotton pellet granuloma, six days after implantation. The procedure:
A. Winter and C. C. Porter (J. Am. Pharm. Ass. 1957, 46, 9, pages 515-519).
(§1) The principle of the test consists in implanting a pellet of cotton wool in the dorsal subcutaneous tissue of the animal. The corticoids to be studied are added to the pellet so that the following tests can be carried out:
(1) Determination of the local anti-inflammatory activity
The presence of products within the pellet may inhibit or prevent the formation of a granuloma.
(§2) The animals are divided into random homogeneous groups of 10 male Sprague-Dawley I.O.P.S. rats with a body weight of between 100 and 120 grams.
(§3) The pellets to be implanted weigh from 35 to 40 mg and are prepared from balls of dental cotton wool. Before being inserted, each pellet is weighed and impregnated with the precise quantity of the product which is to be studied, dissolved in 0.2 ml of chloroform. The chloroform is eliminated by evaporation over a period of 24 hours at ambient temperature.
(§4) Before implantation, each pellet is impregnated with a solution of antibiotics:
Streptomycin 0.1 gram/ml.
(§5) The animals are anaesthetised with ether, and then two pellets are implanted in each animal in the dorsal subcutaneous tissue, on each side of the median line:
(§6) on the left, the pellet containing the product to be tested (treated animal) or the carrier only (control animal);
(§7) on the right, the pellet containing the carrier only.
(§8) The animals are given normal food and are sacrificed six days after the pellets have been implanted.
(1) Local anti-inflammatory activity
The pellets surrounded by granulomatous tissue are carefully removed and weighed, and then dried until a constant weight is obtained.
The relative activity of the test products compared with betamethasone 17,21-dipropionate is calculated according to the following equation: [formula]

The test system of data set [2] is thymus. The data set is described as follows: Systemic activity after local administration: effect on the weight of the thymus. How it is done:
(§9) The pharmacological activity of the products described in the invention was tested in the rat using a technique similar to that described by C. A. Winter and C. C. Porter (J. Am. Pharm. Ass. 1957, 46, 9, pages 515-519).
as §1
(§10) (2) Determination of the systemic activity of the products after local administration
(§11) Local application of the corticoids may result, inter alia, in:
(a) a reduction in the defence systems of the organism, the most notable sign of which is a reduction in the weight of the animals' thymuses.
as §2, §3, §4, §5, §6, §7, §8
(2) Determination of the systemic effect
The thymuses are taken from the same animals and weighed. Using the same type of calculation, an ED 50 is determined, which corresponds to the dosage of product resulting in a 50% decrease in weight of the thymuses, compared with the control animals.

Data set [3] in a line: Systemic activity after local administration: effect on weight gain. How it is done: as §9, §1, §10, §11
(b) Disruption of the protein metabolism which causes tissue fusion, resulting in an inhibition of the weight increase in animals.
as §2, §3, §4, §5, §6, §7, §8
(b) Effect on weight gain
The weight gain over six days is determined on the animals before they are sacrificed.
The activity of the products was expressed as the percentage inhibition in the weight gain of the treated animals compared with the weight gain in the control animals.
The ED 30 which corresponds to a 30% inhibition in the weight gain was determined.

[4] abbreviates: D.P.B. = 1, calculated from ED50, Table 2.
Setting [5] is: rat, local application, six days, Table 2.
[6] abbreviates: D.P.B. = 1, calculated from ED30, Table 3.
Setting [7] is: rat, local application, weight gain over six days, Table 3.

Turning to `CCC(=O)OCC(=O)[C@@]1(OC(=O)CC)[C@@H](C)C[C@H]2[C@@H]3CCC4=CC(=O)C=C[C@]4(C)[C@@]3(Cl)[C@@H](O)C[C@@]21C` [Beclomethasone dipropionate, beclomethasone 17,21-dipropionate, reference compound], in data set [1], the “R 1 (relative local anti-inflammatory activity compared with betamethasone 17,21-dipropionate)” value was less than 0.2 and the “ED50 (local anti-inflammatory activity, 50% inhibition in granuloma weight)” value is greater than 5 mg/pellet. In data set [2] (setting [4]), the “R 2 (relative effect on thymus weight compared with D.P.B.)” value is recorded as 0.27. In addition, the “ED50 (50% decrease in weight of the thymuses)” value in data set [2] (setting [5]) turned out to be 3.1 mg/pellet. Besides, the “R 3 (relative activity on weight gain compared with D.P.B.)” value in data set [3] (setting [6]) was 0.16. Besides, the “ED30 (30% inhibition in the weight gain)” value in data set [3] (setting [7]) is reported as 5 mg/pellet.

Turning to `CCC(=O)OCC(=O)C1(OC(=O)CC)C(C)CC2C3CCC4=CC(=O)C=CC4(C)C3(F)C(O)CC21C` (stereo not drawn) [D.P.B., betamethasone 17,21-dipropionate, reference compound], in data set [1], the “R 1 (relative local anti-inflammatory activity compared with betamethasone 17,21-dipropionate)” value is on record as 1 and the “ED50 (local anti-inflammatory activity, 50% inhibition in granuloma weight)” value is reported as 1.610 mg/pellet. In addition, in data set [2] (setting [4]), the “R 2 (relative effect on thymus weight compared with D.P.B.)” value is reported as 1. The “ED50 (50% decrease in weight of the thymuses)” value in data set [2] (setting [5]) is reported as 0,86 mg/pellet. The “R 3 (relative activity on weight gain compared with D.P.B.)” value in data set [3] (setting [6]) is on record as 1. Further, the “ED30 (30% inhibition in the weight gain)” value in data set [3] (setting [7]) is greater than 0.8 mg/pellet.

On to `CCCCC(=O)O[C@]1(C(=O)CSC(=O)CCCC)CC[C@H]2[C@@H]3CCC4=CC(=O)CC[C@]4(C)[C@H]3[C@@H](O)C[C@@]21C` [Ex. 1, 11β-hydroxy-pregn-4-ene-3,20-dione (or hydrocortisone) 17-valerate, 21-thiovalerate], for which, in data set [1], the “R 1 (relative local anti-inflammatory activity compared with betamethasone 17,21-dipropionate)” value is listed as greater than 8 and the “ED50 (local anti-inflammatory activity, 50% inhibition in granuloma weight)” value was less than 0.200 mg/pellet. The “ED50 (50% decrease in weight of the thymuses)” value in data set [2] (rat, in vivo) was “zero to 3.2”. Further, the “R 2 (relative effect on thymus weight compared with D.P.B.)” value in data set [2] (rat, in vivo, 8640 min) is recorded as less than 0.27. For the same compound, in data set [3] (rat, in vivo, 8640 min), the “ED30 (30% inhibition in the weight gain)” value is greater than 3.2 mg/pellet and the “R 3 (relative activity on weight gain compared with D.P.B.)” value was less than 0.25.

Regarding `CCCCC(=O)O[C@]1(C(=O)CSC(=O)C(C)(C)C)CC[C@H]2[C@@H]3CCC4=CC(=O)CC[C@]4(C)[C@H]3[C@@H](O)C[C@@]21C` [Ex. 2, 11β-hydroxy-pregn-4-ene-3,20-dione (or hydrocortisone) 17-valerate, 21-thiopivalate], in data set [1], the “R 1 (relative local anti-inflammatory activity compared with betamethasone 17,21-dipropionate)” value is listed as 0.75 and the “ED50 (local anti-inflammatory activity, 50% inhibition in granuloma weight)” value was 2.140 mg/pellet. Also, the “ED50 (50% decrease in weight of the thymuses)” value in data set [2] (rat, in vivo) was “zero to 3.4”. In addition, the “R 2 (relative effect on thymus weight compared with D.P.B.)” value in data set [2] (rat, in vivo, 8640 min) is given as less than 0.25. Also, in data set [3] (rat, in vivo, 8640 min), the “ED30 (30% inhibition in the weight gain)” value is on record as greater than 3.4 mg/pellet and the “R 3 (relative activity on weight gain compared with D.P.B.)” value is listed as less than 0.24.

For `CCCC(=O)O[C@]1(C(=O)CSC(C)=O)CC[C@H]2[C@@H]3CCC4=CC(=O)C=C[C@]4(C)[C@H]3C(=O)C[C@@]21C` [Ex. 3, Pregna-1,4-diene-3,11,20-trione (or prednisone) 17-butyrate, 21-thioacetate], in data set [1], the “R 1 (relative local anti-inflammatory activity compared with betamethasone 17,21-dipropionate)” value is 2.7 and the “ED50 (local anti-inflammatory activity, 50% inhibition in granuloma weight)” value is on record as 0.600 mg/pellet. In data set [2] (rat, in vivo, 8640 min), the “ED50 (50% decrease in weight of the thymuses)” value is greater than 5 mg/pellet and the “R 2 (relative effect on thymus weight compared with D.P.B.)” value is less than 0.17. Further, in data set [3] (rat, in vivo, 8640 min), the “ED30 (30% inhibition in the weight gain)” value is on record as greater than 5 mg/pellet and the “R 3 (relative activity on weight gain compared with D.P.B.)” value is less than 0.16.

Take `CC(=O)SCC(=O)[C@@]1(OC(=O)c2ccccc2)CC[C@H]2[C@@H]3C[C@H](C)C4=CC(=O)C=C[C@]4(C)[C@H]3[C@@H](O)C[C@@]21C` [Ex. 4, 11β-hydroxy-6α-methyl-pregna-1,4-diene-3,20-dione (or 6β-methylprednisolone) 17-benzoate, 21-thioacetate]: in data set [1], the “R 1 (relative local anti-inflammatory activity compared with betamethasone 17,21-dipropionate)” value is listed as 29 and the “ED50 (local anti-inflammatory activity, 50% inhibition in granuloma weight)” value is reported as 0.056 mg/pellet. Further, in data set [2] (rat, in vivo, 8640 min), the “ED50 (50% decrease in weight of the thymuses)” value is listed as greater than 5 mg/pellet and the “R 2 (relative effect on thymus weight compared with D.P.B.)” value was less than 0.17. In addition, in data set [3] (rat, in vivo, 8640 min), the “ED30 (30% inhibition in the weight gain)” value is recorded as greater than 5 mg/pellet and the “R 3 (relative activity on weight gain compared with D.P.B.)” value is reported as less than 0.16.
